Laboratory results reported in ChEMBL document CHEMBL1143513, “Structure-activity relationships for 2-anilino-6-phenylpyrido[2,3-d]pyrimidin-7(8H)-ones as inhibitors of the cellular checkpoint kinase Wee1” (Bioorg Med Chem Lett, 2005).

Tests used:
[1] = Inhibition of c-Src tyrosine kinase
[2] = biological target: Wee1-like protein kinase (Homo sapiens, UniProt P30291); test: Inhibition of checkpoint kinase Wee1
[3] = Inhibition of Platelet-derived growth factor receptor
[4] = biological target: Fibroblast growth factor receptor (Homo sapiens, UniProt P22607+P11362+P22455+P21802); test: Inhibition of Fibroblast growth factor receptor; assay type: protein assay

Wee1-like protein kinase, sequence (P30291 whole entry): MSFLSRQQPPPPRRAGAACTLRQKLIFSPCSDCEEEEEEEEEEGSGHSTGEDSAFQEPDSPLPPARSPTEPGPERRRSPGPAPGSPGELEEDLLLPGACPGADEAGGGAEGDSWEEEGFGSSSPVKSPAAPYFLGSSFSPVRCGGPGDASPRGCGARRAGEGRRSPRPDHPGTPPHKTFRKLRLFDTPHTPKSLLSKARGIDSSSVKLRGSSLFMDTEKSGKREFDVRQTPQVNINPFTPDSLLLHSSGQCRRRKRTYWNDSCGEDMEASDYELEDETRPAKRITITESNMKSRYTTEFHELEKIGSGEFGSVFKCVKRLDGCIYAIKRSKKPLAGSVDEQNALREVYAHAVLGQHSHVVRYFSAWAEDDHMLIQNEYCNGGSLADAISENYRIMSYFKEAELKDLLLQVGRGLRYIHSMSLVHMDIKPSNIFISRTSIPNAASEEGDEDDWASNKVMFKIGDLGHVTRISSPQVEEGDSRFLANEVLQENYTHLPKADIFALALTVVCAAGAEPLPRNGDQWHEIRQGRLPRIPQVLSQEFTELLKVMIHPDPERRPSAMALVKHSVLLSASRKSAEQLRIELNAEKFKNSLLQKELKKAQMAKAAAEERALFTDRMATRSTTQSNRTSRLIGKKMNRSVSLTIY

| Compound | IC50 [1] [nM] | IC50 [2] [nM] | IC50 [3] [nM] | IC50 [4] [nM] |
| --- | --- | --- | --- | --- |
| CC(=O)Nc1cc(Cl)c(-c2cc3cnc(Nc4ccccc4)nc3n(C)c2=O)c(Cl)c1 | 1500 | 3600 | – | – |
| Cc1c(O)cc(O)c(C)c1-c1cc2cnc(Nc3ccccc3)nc2n(C)c1=O | 110 | 1000 | – | – |
| Cn1c(=O)c(-c2c(Cl)cccc2Cl)cc2cnc(Nc3ccc(CCCC4N=NN=N4)cc3)nc21 | 25 | 69 | – | – |
| Cn1c(=O)c(-c2c(Cl)cccc2Cl)cc2cnc(Nc3ccc(CC(N)=O)cc3)nc21 | 13 | 120 | – | – |
| CN(C)CCOC(=O)CCCc1ccc(Nc2ncc3cc(-c4c(Cl)cccc4Cl)c(=O)n(C)c3n2)cc1 | 7 | 124 | – | – |
| Cn1c(=O)c(-c2c(Cl)ccc(C(N)=O)c2Cl)cc2cnc(Nc3ccccc3)nc21 | 130 | 8600 | – | – |
| Cn1c(=O)c(-c2c(Cl)cc(O)cc2Cl)cc2cnc(Nc3ccccc3)nc21 | 73 | 220 | – | – |
| Cn1c(=O)c(-c2c(Cl)ccc(CO)c2Cl)cc2cnc(Nc3ccccc3)nc21 | 39 | 3500 | – | – |
| Cc1cccc(Br)c1-c1cc2cnc(Nc3ccccc3)nc2n(C)c1=O | 58 | 4500 | – | – |
| COc1cccc(O)c1-c1cc2cnc(Nc3ccccc3)nc2n(C)c1=O | 50 | 11000 | – | – |
| Cn1c(=O)c(-c2c(Cl)cccc2Cl)cc2cnc(Nc3ccc(CCCCC(N)=O)cc3)nc21 | 28 | 260 | – | – |
| COc1ccc(Cl)c(-c2cc3cnc(Nc4ccccc4)nc3n(C)c2=O)c1Cl | 540 | > 50000 | – | – |
| COc1cc(C)c(-c2cc3cnc(Nc4ccccc4)nc3n(C)c2=O)c(C)c1 | 250 | > 50000 | – | – |
| COc1cccc(OC)c1-c1cc2cnc(Nc3ccccc3)nc2n(C)c1=O | 980 | > 50000 | – | – |
| CC(=O)Nc1ccc(Cl)c(-c2cc3cnc(Nc4ccccc4)nc3n(C)c2=O)c1Cl | 780 | > 50000 | – | – |
| Cc1cccc(C)c1-c1c(C)c2cnc(Nc3ccccc3)nc2n(C)c1=O | 15000 | 1200 | – | – |
| Cc1cccc(Cl)c1-c1cc2cnc(Nc3ccccc3)nc2n(C)c1=O | 12 | 1900 | – | – |
| CCN(CC)CCOc1ccc(Nc2ncc3c(C)c(-c4c(C)cccc4C)c(=O)n(C)c3n2)cc1 | 360 | 540 | – | – |
| CCN(CC)CCOc1ccc(Nc2ncc3c(C)c(-c4ccccc4Cl)c(=O)n(C)c3n2)cc1 | > 50000 | 550 | – | – |
| CCN(CC)CCOc1ccc(Nc2ncc3cc(-c4c(C)cccc4C)c(=O)n(C)c3n2)cc1 | 23 | 990 | – | – |

| Compound | IC50 [1] [nM] | IC50 [2] [nM] | IC50 [3] [nM] | IC50 [4] [nM] |
| --- | --- | --- | --- | --- |
| Cn1c(=O)c(-c2c(Cl)ccc(O)c2Cl)cc2cnc(Nc3ccccc3)nc21 | 9 | 74 | – | – |
| COc1cccc(Cl)c1-c1cc2cnc(Nc3ccccc3)nc2n(C)c1=O | 120 | 3400 | – | – |
| Cn1c(=O)c(-c2c(Cl)cccc2Cl)cc2cnc(Nc3ccc(OCCCC(=O)O)cc3)nc21 | 4 | 86 | – | – |
| Cn1c(=O)c(-c2c(Cl)cc(O)cc2Cl)cc2cnc(Nc3ccc(OCCCC(=O)O)cc3)nc21 | 6 | 40 | – | – |
| CCN(CC)CCOc1ccc(Nc2ncc3cc(-c4c(Cl)ccc(O)c4Cl)c(=O)n(C)c3n2)cc1 | 6 | 150 | – | – |
| Cn1c(=O)c(-c2c(Cl)ccc(N)c2Cl)cc2cnc(Nc3ccccc3)nc21 | 90 | 2600 | – | – |
| Cn1c(=O)c(-c2c(F)cccc2Cl)cc2cnc(Nc3ccccc3)nc21 | 43 | 2400 | – | – |
| Cn1c(=O)c(-c2c(Cl)ccc(CN)c2Cl)cc2cnc(Nc3ccccc3)nc21 | 62 | 31000 | – | – |
| Cn1c(=O)c(-c2c(C(F)(F)F)cccc2C(F)(F)F)cc2cnc(Nc3ccccc3)nc21 | 8100 | 41000 | – | – |
| Cn1c(=O)c(-c2c(Cl)cc(N)cc2Cl)cc2cnc(Nc3ccccc3)nc21 | 270 | 3700 | – | – |
| Cn1c(=O)c(-c2c(Cl)ccc(C(=O)O)c2Cl)cc2cnc(Nc3ccccc3)nc21 | 280 | 3200 | – | – |
| COc1cc(OC)cc(-c2cc3cnc(N)nc3nc2NC(=O)NC(C)(C)C)c1 | – | – | > 50000 | – |
| Cn1c(=O)c(-c2c(Cl)cccc2Cl)cc2cnc(Nc3ccccc3)nc21 | 24 | 2600 | – | – |
| Cc1c(-c2ccccc2)c(=O)n(C)c2nc(Nc3ccccc3)ncc12 | > 50000 | > 50000 | – | – |
| COc1cc(OC)c(C)c(-c2cc3cnc(Nc4ccccc4)nc3n(C)c2=O)c1C | 39000 | 33000 | – | – |
| Cc1cccc(C)c1-c1cc2cnc(Nc3ccccc3)nc2n(C)c1=O | 14 | 990 | – | – |
| Cn1c(=O)c(-c2c(Cl)ccc(Cl)c2Cl)cc2cnc(Nc3ccccc3)nc21 | 270 | > 50000 | – | – |
| Cn1c(=O)c(-c2c(O)cccc2O)cc2cnc(Nc3ccccc3)nc21 | 720 | 27000 | – | – |
| COc1cc(Cl)c(-c2cc3cnc(Nc4ccccc4)nc3n(C)c2=O)c(Cl)c1 | 6500 | > 50000 | – | – |
| Cc1ccc(Cl)c(-c2cc3cnc(Nc4ccccc4)nc3n(C)c2=O)c1Cl | 2800 | 50000 | – | – |

| Compound | IC50 [1] [nM] | IC50 [2] [nM] | IC50 [3] [nM] | IC50 [4] [nM] |
| --- | --- | --- | --- | --- |
| Cn1c(=O)c(-c2c(Cl)cccc2C(F)(F)F)cc2cnc(Nc3ccccc3)nc21 | 210 | > 50000 | – | – |
| Cc1c(-c2ccccc2Cl)c(=O)n(C)c2nc(Nc3ccccc3)ncc12 | > 50000 | 410 | – | – |
| Cn1c(=O)c(-c2c(Cl)c(O)cc(O)c2Cl)cc2cnc(Nc3ccccc3)nc21 | 11 | 140 | – | – |
| COc1cc(OC)c(Cl)c(-c2cc3cnc(Nc4ccccc4)nc3n(C)c2=O)c1Cl | > 50000 | > 50000 | – | – |
| Cn1c(=O)c(-c2c(Cl)cc(Cl)cc2Cl)cc2cnc(Nc3ccccc3)nc21 | 330 | 8600 | – | – |
| Cn1c(=O)c(-c2c(Br)cccc2Br)cc2cnc(Nc3ccccc3)nc21 | 47 | 410 | – | – |
| Cn1c(=O)c(-c2c(Cl)cccc2Cl)cc2cnc(Nc3ccc(CCCC(=O)OCCN4CCCCC4)cc3)nc21 | 11 | 142 | – | – |
| Cn1c(=O)c(-c2c(Cl)cccc2Cl)cc2cnc(Nc3ccc(CCCC(=O)OCCN4CCOCC4)cc3)nc21 | 4 | 95 | – | – |
| Cn1c(=O)c(-c2c(Cl)ccc(O)c2Cl)cc2cnc(Nc3ccc(OCCCC(=O)O)cc3)nc21 | 99 | 40 | – | – |
| Cn1c(=O)c(-c2c(Cl)cccc2Cl)cc2cnc(Nc3ccc(OCC(N)=O)cc3)nc21 | 14 | 250 | – | – |
| Cc1cc(O)cc(C)c1-c1cc2cnc(Nc3ccccc3)nc2n(C)c1=O | 17 | 580 | – | – |
| Cn1c(=O)c(-c2c(F)cccc2F)cc2cnc(Nc3ccccc3)nc21 | 66 | 9700 | – | – |
| COc1cc(OC)cc(-c2cc3cnc(NCCCN4CCOCC4)nc3nc2NC(=O)NC(C)(C)C)c1 | > 50000 | – | – | 30 |
| Cn1c(=O)c(-c2c(Cl)cccc2Cl)cc2cnc(Nc3ccc(CCC(N)=O)cc3)nc21 | 30 | 190 | – | – |
| Cn1c(=O)c(-c2c(O)cccc2Cl)cc2cnc(Nc3ccccc3)nc21 | 22 | 1500 | – | – |
| Cn1c(=O)c(-c2c(Cl)cccc2Cl)cc2cnc(Nc3ccc(CC(N)C(=O)O)cc3)nc21 (stereo not given) | 9 | 90 | – | – |
| CCN(CC)CCOc1ccc(Nc2ncc3cc(-c4c(Cl)cc(O)cc4Cl)c(=O)n(C)c3n2)cc1 | 8 | 80 | – | – |
| CC(C)(C)NC(=O)Nc1nc2nc(N)ncc2cc1-c1c(Cl)cccc1Cl | – | – | 1100 | – |
| CCN(CC)CCOc1ccc(Nc2ncc3cc(-c4c(Cl)cccc4Cl)c(=O)n(C)c3n2)cc1 [PD-0166285] | – | – | 79000 | – |
